Where “and” joins values, the source holds several entries; their conditions need not be identical. Identical values can stand only once. Like-named read-outs stand apart in the source and are kept apart here.
What was measured:
RS4;11 cells = test: Cell growth assay (WST-8), RS4;11; assay type: cell-based; conditions: Homo sapiens, RS4-11, 96 h
Description: (§1) RS4;11 and H146 cells were seeded in 96-well cell culture plates at a density of 10,000 cells/well with serially diluted compounds and incubated at 37° C. in an atmosphere of 95% air and 5% CO2 for 4 days. Cell viability was determined using the WST-8 (2-(2-methoxy-4-nitrophenyl)-3-(4-nitrophenyl)-5-(2,4-disulfophenyl)-2H-tetrazolium, monosodium salt) based Cell Counting-8 Kit (Dojindo Molecular Technologies, Inc., Rockville, Md.) according to the manufacture's instruction. Briefly, WST-8 was added to each well at a final concentration of 10% (v/v), and then the plates were incubated at 37° C. for 1˜2 hours for color development. The absorbance was measured at 450 nm using a SPECTRAmax PLUS plate reader (Molecular Devices, Sunnyvale, Calif.). The half maximal inhibitory concentration (IC50) was calculated using the GraphPad Prism 5 software (GraphPad Software, La Jolla, Calif.).

H146 cells = test: Cell growth assay (WST-8), H146; assay type: cell-based; conditions: Homo sapiens, NCI-H146, 96 h
Description: as §1

[1] = tested on: ML-2 acute myeloid leukemia (AML) cell line; test: Cell growth assay (WST-8), ML-2; assay type: cell-based
[2] = tested on: H146 small-cell lung cancer cell line; test: Cell death assay (trypan blue), H146; assay type: cell-based; conditions: trypan blue assay
Description: Cell death assay was performed using a Trypan blue exclusion test of cell viability. One million cells were seeded in 6-well plates and incubated at 37° C. in an atmosphere of 95% air and 5% CO2 with or without compounds for the indicated time points. At the end of treatment, cells were collected and centrifuged at 1000 rpm for 5 minutes. The cell pellets were re-suspended in PBS and mixed with 0.4% Trypan blue (Invitrogen) at 1:1 dilution to determine cell viability using Olympus CKX41 microscope (Olympus, Center Valley, Pa.).

ML-2 AML cell line = test: Apoptosis assay (Annexin-V/PI flow cytometry), ML-2; assay type: cell-based; conditions: 300 nM, 24 hr
Description: (§2) Apoptosis assay was performed using the Annexin-V-FLUOS Staining kit (Roche Diagnostics, Indianapolis, Ind.) according to the manufacturer's instruction. Briefly, cells were treated with compounds for the indicated time points, harvested and washed with PBS. Cells were stained with Annexin V-FITC and Propidium iodide for 15 minutes at room temperature in the dark before analyzed with a BD Biosciences FACSCaliburs (Becton Dickinson).

RS4;11 cell line [3] = test: Apoptosis assay (Annexin-V/PI flow cytometry), RS4;11; assay type: cell-based; conditions: time- and dose-dependent, Annexin-V/PI
Description: as §2

RS4;11 cell line [4] = test: Western blot of PARP and caspase-3 cleavage, RS4;11; assay type: cell-based; conditions: as low as 100 nM, 8-hr treatment
Description: (§3) Cells were lysed with lysis buffer (PBS containing 1% NP40, 0.5% Na-deoxycholate, and 0.1% SDS) supplemented with protease inhibitors (α-complete, Roche). The protein extracts were quantified using a calorimetric assay (Bradford Reagent) (BioRad, Hercules, Calif.). Proteins were electrophoresed onto 4-20% SDS-PAGE gels (Invitrogen) and transferred onto polyvinylidene difluoride membranes (Bio-Rad). Following blocking in 5% milk, membranes were incubated with a specific primary antibody, washed, and incubated with horseradish peroxidase-linked secondary antibody (Pierce). The signals were visualized with the chemiluminescent horseradish peroxidase antibody detection reagent (Denville Scientific).

H146 cell line = test: Western blot of PARP and caspase-3 cleavage, H146; assay type: cell-based; conditions: as low as 100 nM, 8-hr treatment
Description: as §3

ML-2 cell line = test: Western blot of PARP and caspase-3 cleavage, ML-2; assay type: cell-based; conditions: as low as 100 nM, 8-hr treatment
Description: as §3

cellular Bcl-2/Bcl-xL = test: Competitive pull-down against Biotin-150 in ML-2 and H146 cell lysates; assay type: binding; conditions: competitive experiment
Mcl-1 = Mcl-1 (Homo sapiens, UniProt Q07820); test: FP-based binding assay, Mcl-1; conditions: for IC50: Table 4, FP-based assay, read-out: Binding Affinities Mcl-1 IC50 ± SD
Sequence of Mcl-1 (Q07820 whole entry, species assumed): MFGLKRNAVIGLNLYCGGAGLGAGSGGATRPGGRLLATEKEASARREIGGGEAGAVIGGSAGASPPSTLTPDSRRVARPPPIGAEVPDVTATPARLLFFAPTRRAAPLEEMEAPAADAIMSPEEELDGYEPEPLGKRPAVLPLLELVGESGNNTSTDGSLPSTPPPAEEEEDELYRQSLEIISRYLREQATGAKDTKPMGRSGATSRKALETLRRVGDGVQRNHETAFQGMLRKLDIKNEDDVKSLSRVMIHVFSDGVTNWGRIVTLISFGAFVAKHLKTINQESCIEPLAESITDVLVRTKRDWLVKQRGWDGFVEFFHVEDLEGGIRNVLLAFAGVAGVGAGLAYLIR

Bcl-2 = Bcl-2 (Homo sapiens, UniProt P10415); test: FP-based binding assay, Bcl-2
Sequence of Bcl-2 (P10415 whole entry): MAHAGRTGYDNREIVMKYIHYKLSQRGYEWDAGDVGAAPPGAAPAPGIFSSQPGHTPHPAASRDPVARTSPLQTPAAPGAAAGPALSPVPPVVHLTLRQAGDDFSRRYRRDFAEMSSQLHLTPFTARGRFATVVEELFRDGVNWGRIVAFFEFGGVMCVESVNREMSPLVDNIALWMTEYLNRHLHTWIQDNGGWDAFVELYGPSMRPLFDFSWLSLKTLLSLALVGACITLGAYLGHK

Bcl-xL = Bcl-xL (Homo sapiens, UniProt Q07817); test: FP-based binding assay, Bcl-xL; conditions: for Ki: Binding Affinities Bcl-xL Ki ± SD (nM), Table 4, * Ki is an estimate, compound more potent than the tracer
Sequence of Bcl-xL (Q07817 whole entry): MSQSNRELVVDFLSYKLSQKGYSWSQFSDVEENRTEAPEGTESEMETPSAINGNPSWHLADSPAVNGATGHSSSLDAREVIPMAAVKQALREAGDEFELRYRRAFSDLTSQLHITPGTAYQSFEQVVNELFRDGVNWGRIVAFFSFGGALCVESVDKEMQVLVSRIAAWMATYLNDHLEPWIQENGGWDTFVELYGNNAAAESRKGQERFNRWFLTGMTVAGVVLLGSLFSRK

[5] = Toxicity (maximum tolerated dose) in SCID mice; assay type: in vivo
Description: These experiments established the maximum tolerated doses (MTD).

[6] = Table 4, 4 days, read-out: Cell Growth Inhibition (IC50 ± SD, nM) RS4;11
[7] = Table 4, 4 days, read-out: Cell Growth Inhibition (IC50 ± SD, nM) H146
[8] = Table 4, read-out: Cell Growth Inhibition (IC50 ± SD, nM) ML-2
[9] = read-out: Binding Affinities Bcl-xL IC50 ± SD, Table 4, FP-based assay

| Molecule | IC50 (Mcl-1) [nM] | IC50 (RS4;11 cells; [6]) [nM] | IC50 (H146 cells; [7]) [nM] | IC50 [1, 8] [nM] | IC50 (Bcl-2) [nM] | Ki (Bcl-2) [nM] | IC50 (Bcl-xL) [nM] | Ki (Bcl-xL) | other results |
| --- | --- | --- | --- | --- | --- | --- | --- | --- | --- |
| CN(C)CC[C@H](CSc1ccccc1)Nc1ccc(S(=O)(=O)NC(=O)c2ccc(N3CCN(Cc4ccccc4-c4ccc(Cl)cc4)CC3)cc2)cc1[N+](=O)[O-] [ABT-737, reference compound] | – | – | – | – | – | – | – | – | IC50 (RS4;11 cells; Table 3, 4 days, read-out: Cell Growth Inhibition (IC50 ± SD) RS4, 11): 12 ± 6 nM; IC50 (H146 cells; Table 3, 4 days, read-out: Cell Growth Inhibition (IC50 ± SD) H146): 62 ± 39 nM; IC50 ([1]; Table 3, read-out: Cell Growth Inhibition (IC50 ± SD) ML-2): 16 ± 2 nM; Cell death induction in H146 [2]: effectively induced cell death; ML-2 cells undergoing apoptosis (ML-2 AML cell line): about 50%; Apoptosis induction in RS4;11 (RS4;11 cell line [3]): highly effective in induction of apoptosis; Cleavage of PARP and caspase-3 (RS4;11 cell line [4]): highly effective in induction of cleavage of PARP and caspase-3; Cleavage of PARP and caspase-3 (H146 cell line): highly effective in induction of cleavage of PARP and caspase-3; Cleavage of PARP and caspase-3 (ML-2 cell line): highly effective in induction of cleavage of PARP and caspase-3; Blocking of interaction of cellular Bcl-2/Bcl-xL with Biotin-150 (cellular Bcl-2/Bcl-xL): blocked the interaction of cellular Bcl-2/Bcl-xL and Biotin-150 in a dose-dependent manner |
| CN(C)CC[C@@H](CSc1ccccc1)Nc1ccc(S(=O)(=O)Nc2ccc(N3CCN(c4cccc(-c5ccnn5-c5ccc(Cl)cc5)c4)CC3)cc2)cc1[N+](=O)[O-] [Compound 130] | – | – | – | – | – | – | – | – | Weight loss or other signs of toxicity ([5]; female SCID mice, intravenously, daily, 5-times a week for 2 weeks, 25 mg/kg): no or minimal weight loss or other signs of toxicity |
| Cc1c(C(=O)NS(C)(=O)=O)c(-c2cccc(N3CCN(c4ccc(NS(=O)(=O)c5ccc(N[C@H](CCN(C)C)CSc6ccccc6)c([N+](=O)[O-])c5)cc4)CC3)c2)c(-c2ccc(Cl)cc2)n1C [Compound 133] | > 10000 | 87 ± 19 | 38 ± 22 | 160 ± 53 | 1 ± 0.2 | < 1 | – | 1.3 ± 0.3 nM | Weight loss at higher dose ([5]; SCID mice, 50 mg/kg): caused weight loss; IC50 (Bcl-xL; [9]): 5 ± 1 nM |
| Cc1c(C(=O)O)c(-c2cccc(N3CCN(c4ccc(NS(=O)(=O)c5ccc(N[C@H](CCN6CCOCC6)CSc6ccccc6)c(S(=O)(=O)C(F)(F)F)c5)cc4)CC3)c2)c(-c2ccc(Cl)cc2)n1C [Compound 186, (R)-5-(4-chlorophenyl)-1,2-dimethyl-4-(3-(4-(4-(4-((4-morpholino-1-(phenylthio)butan-2-yl)amino)-3-((trifluoromethyl)sulfonyl)phenylsulfonamido)phenyl)piperazin-1-yl)phenyl)-1H-pyrrole-3-carboxylic acid] | > 10000 | 493 ± 64 | 430 ± 207 | 1090 ± 562 | 14 ± 3 | 3.4 ± 0.6 | 6 ± 3 | 1.6 ± 0.8 nM | – |
| Flu-BID: "Homemade fluorescein labeled" "BID (79-99)" peptide, fluorescent probe "in FP assays for" Mcl-1 [reference compound] | – | – | – | – | – | – | – | – | Kd (Mcl-1; saturation FP, 2 nM probe, increasing protein, read-out: Kd of fluorescent probe to Mcl-1): 6.8 ± 1.5 nM |

More lines, main results first:

| IC50 (Mcl-1) [nM] | IC50 (RS4;11 cells; [6]) [nM] | IC50 (H146 cells; [7]) [nM] | IC50 [1, 8] [nM] | IC50 (Bcl-2) [nM] | Ki (Bcl-2) [nM] | IC50 (Bcl-xL) [nM] | Ki (Bcl-xL) | Molecule | other results |
| --- | --- | --- | --- | --- | --- | --- | --- | --- | --- |
| > 10000 | 89 ± 30 | 178 ± 65 | 382 ± 138 | 14 ± 2 | 3 ± 0.6 | 5 ± 1 | 1 ± 0.2 nM | CNC(=O)c1c(-c2cccc(N3CCN(c4ccc(NS(=O)(=O)c5ccc(N[C@H](CCN6CCOCC6)CSc6ccccc6)c([N+](=O)[O-])c5)cc4)CC3)c2)c(-c2ccc(Cl)cc2)n(C)c1C [Compound 124] | – |
| > 10000 | 74 ± 44 | 36 ± 26 | 215 ± 52 | – | – | – | 1.6 ± 0.8 nM | CNC(=O)c1c(-c2cccc(N3CCN(c4ccc(NS(=O)(=O)c5ccc(N[C@H](CCN(C)C)CSc6ccccc6)c([N+](=O)[O-])c5)cc4)CC3)c2)c(-c2ccc(Cl)cc2)n(C)c1C [Compound 125] | IC50 (Bcl-2; read-out: Binding Affinities Bcl-2 IC50 ± SD, Table 4, FP-based assay): 5 ± 1 nM; Ki (Bcl-2; read-out: Binding Affinities Bcl-2 Ki ± SD, Table 4, * Ki is an estimate, compound more potent than the tracer): 1.1 ± 0.2 nM; IC50 (Bcl-xL; [9]): 6 ± 3 nM |
| > 5000 | – | – | – | – | – | 3 ± 0.4 | 3 nM and < 1 nM | Cc1cc(-c2cccc(N3CCN(c4ccc(NS(=O)(=O)c5ccc(N[C@H](CCN(C)C)CSc6ccccc6)c([N+](=O)[O-])c5)cc4)CC3)c2)c(-c2ccc(Cl)cc2)n1C [Compound 168, (R)—N-(4-(4-(3-(2-(4-chlorophenyl)-1,5-dimethyl-1H-pyrrol-3-yl)phenyl)piperazin-1-yl)phenyl)-4-((4-(dimethylamino)-1-(phenylthio)butan-2-yl)amino)-3-nitrobenzenesulfonamide] | – |
| > 10000 | 26 ± 4 | 87 ± 60 | 124 ± 62 | 1 ± 0.1 | < 1 | – | 1.6 ± 1 nM | Cc1c(C(=O)O)c(-c2cccc(N3CCN(c4ccc(NS(=O)(=O)c5ccc(N[C@H](CCN(C)C)CSc6ccccc6)c([N+](=O)[O-])c5)cc4)CC3)c2)c(-c2ccc(Cl)cc2)n1C [Compound 178, (R)-5-(4-chlorophenyl)-4-(3-(4-(4-(4-((4-(dimethylamino)-1-(phenylthio)butan-2-yl)amino)-3-nitrophenylsulfonamido)phenyl)piperazin-1-yl)phenyl)-1,2-dimethyl-1H-pyrrole-3-carboxylic acid] | IC50 (Bcl-xL; [9]): 6 ± 4 nM |
| > 10000 | 81 ± 7 | 177 ± 73 | 550 ± 204 | 2.2 ± 1.6 | < 1 | 5 ± 4 | 1.3 ± 1 nM | Cc1c(C(=O)O)c(-c2cccc(N3CCN(c4ccc(NS(=O)(=O)c5ccc(N[C@H](CCN(C)C)CSc6ccccc6)c(S(=O)(=O)C(F)(F)F)c5)cc4)CC3)c2)c(-c2ccc(Cl)cc2)n1C [Compound 185, (R)-5-(4-chlorophenyl)-4-(3-(4-(4-(4-((4-(dimethylamino)-1-(phenylthio)butan-2-yl)amino)-3-((trifluoromethyl)sulfonyl)phenylsulfonamido)phenyl)piperazin-1-yl)phenyl)-1,2-dimethyl-1H-pyrrole-3-carboxylic acid] | – |
| > 10000 | 99 ± 28 | 181 ± 61 | 225 ± 49 | 2 ± 1 | < 1 | 5 ± 2 | 1.3 ± 0.6 nM | Cc1c(C(=O)O)c(-c2cccc(N3CCN(c4ccc(NS(=O)(=O)c5ccc(N[C@H](CCN6CCOCC6)CSc6ccccc6)c([N+](=O)[O-])c5)cc4)CC3)c2)c(-c2ccc(Cl)cc2)n1C [Compound 187, (R)-5-(4-chlorophenyl)-1,2-dimethyl-4-(3-(4-(4-(4-((4-morpholino-1-(phenylthio)butan-2-yl)amino)-3-nitrophenylsulfonamido)phenyl)piperazin-1-yl)phenyl)-1H-pyrrole-3-carboxylic acid] | – |

— patent US8691184B2, “Bcl-2/Bcl-xL inhibitors and therapeutic methods using the same” (The Regents of the University of Michigan, priority 2011, dated 2014)
